The numbers were not newly measured in patent publication US10925864B2, “Stable liquid injectable solution of midazolam and pentazocine” (NEON LABORATORIES LIMITED, priority 2015, dated 2021), which cites them from elsewhere.

The conditions of data set [1]: after IM administration in adults.
The conditions of data set [2]: water / aqueous solutions.

Structures can show the parent of a compound that is named as a salt. Where two headings read alike, the source gives them in different places.

In the case of `Cc1ncc2n1-c1ccc(Cl)cc1C(c1ccccc1F)=NC2` [Midazolam], the “Onset time of sedative effects” value in data set [1] was 15 min. Moreover, the solubility entry in data set [2] was “insoluble in water”.

`Cc1ncc2n1-c1ccc(Cl)cc1C(c1ccccc1F)=NC2` [hydrochloride salt of midazolam, Midazolam hydrochloride]: the solubility entry in data set [2] (hydrochloride) was “soluble in aqueous solutions”.
